US20140100217A1, “[…] OF PROLINE-RICH PEPTIDES AND THEIR USE” (priority 2012, published 2014)
No end group written: not given here.

Key:
VASP-EVH1 domain [1] = target: T1, VASP-EVH1 domain (Homo sapiens, UniProt P50552); format: binding
T1 construct: ligand peptides with the VASP-EVH1 domain in solution

VASP-EVH1 domain [2] = target: T1, VASP-EVH1 domain; test: Binding affinity of ligand peptides by kinetic Biacore method
Experimental: With the aid of the synthetic compound 85, ligand peptides with partially or completely replaced proline sequences were synthesized by way of example and investigated for their interaction with the EVH1 domain (pp=component 85). […] The binding affinities were determined by means of NMR titration, the kinetic Biacore method or by means of fluorescence titration.

T1 sequence (P50552 2-113): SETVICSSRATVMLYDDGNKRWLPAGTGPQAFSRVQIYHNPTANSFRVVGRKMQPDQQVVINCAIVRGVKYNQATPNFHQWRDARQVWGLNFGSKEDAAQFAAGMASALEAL

Compound | binding affinity (KD) (VASP-EVH1 domain [1]) | Kd (VASP-EVH1 domain [2]) [µM]
FPPPPT [FPPPPT] | measurable affinity for the VASP-EVH1 domain could no longer be determined | –
CC(C)C[C@H](NC(=O)[C@H](CCC(=O)O)NC(=O)[C@H](CC(=O)O)NC(=O)[C@H](CCC(=O)O)NC(=O)[C@@H](NC(=O)[C@@H]1CCCN1C(=O)[C@@H]1CC[C@@H]2C=C[C@@H](C)[C@H](NC(=O)[C@@H]3CCCN3C(=O)[C@H](Cc3c[nH]c4ccccc34)NC(=O)[C@H](CCC(=O)O)NC(=O)[C@H](Cc3ccccc3)NC(=O)[C@@H](N)CO)C(=O)N21)[C@@H](C)O)C(=O)O [SFEWPppPTEDEL (II)] | – | 3.7 to 12.5
